From US7851474B2, “Dipiperazinyl ketones and related analogues” (Neurogen Corporation, priority 2005, dated 2010) come the findings set out here.

In the first experiment the target is T1, chimeric human H3 receptor (Homo sapiens, UniProt Q9Y5N1, E19D).
T1 construct: made in house; host or cells: Sf9 insect cells (baculovirus infection); P2 membrane preparation
T1 sequence (Q9Y5N1 with tags, fused parts or gaps E19D): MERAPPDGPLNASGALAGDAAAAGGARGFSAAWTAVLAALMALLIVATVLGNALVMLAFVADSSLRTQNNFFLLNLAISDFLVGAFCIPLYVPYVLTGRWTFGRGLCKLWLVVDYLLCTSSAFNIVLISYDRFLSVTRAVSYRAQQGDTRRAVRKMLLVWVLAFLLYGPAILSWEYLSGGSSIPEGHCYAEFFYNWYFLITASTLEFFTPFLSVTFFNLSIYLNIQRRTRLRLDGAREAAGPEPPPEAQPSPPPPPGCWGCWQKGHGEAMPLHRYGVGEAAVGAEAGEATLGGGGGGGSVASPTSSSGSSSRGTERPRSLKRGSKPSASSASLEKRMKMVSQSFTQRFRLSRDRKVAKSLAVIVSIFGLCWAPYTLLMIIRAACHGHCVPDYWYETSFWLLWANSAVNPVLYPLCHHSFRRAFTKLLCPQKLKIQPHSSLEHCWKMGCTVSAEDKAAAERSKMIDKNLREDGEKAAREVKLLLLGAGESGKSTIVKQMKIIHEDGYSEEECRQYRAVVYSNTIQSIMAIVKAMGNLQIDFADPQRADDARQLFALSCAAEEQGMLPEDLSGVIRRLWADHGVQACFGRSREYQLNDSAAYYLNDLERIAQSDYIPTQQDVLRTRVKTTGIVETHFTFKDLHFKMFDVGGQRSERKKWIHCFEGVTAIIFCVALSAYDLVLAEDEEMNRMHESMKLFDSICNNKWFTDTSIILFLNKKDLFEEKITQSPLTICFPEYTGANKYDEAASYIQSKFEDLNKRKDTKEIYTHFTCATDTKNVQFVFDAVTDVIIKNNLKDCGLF
As to the kind of experiment: Chimeric human H3 receptor GTP binding assay (agonist-stimulated GTP-gamma35S binding, Example 7). It is filed as biochemical.
Conditions: not given
Put shortly: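 Sf9 membranes co-expressing the chimeric receptor and heterotrimeric G-protein subunits, 35 μg protein per tube, in pH 7.4 Tris buffer with 10 μM GDP. Test compounds at 10^−10 to 10^−6 M with 1 μM histamine, 60 min at room temperature. Filter-bound GTP-gamma^35S read by scintillation; IC50 from non-linear regression of dose-response curves.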
For orientation: GTPγS resists hydrolysis and so accumulates on activated G proteins.
With `O=C(CN1CCN(c2ccc(C(F)(F)F)cc2)CC1)N1CCN(C2CCCCC2)CC1` [Compound 803, 1-cyclohexyl-4-({4-[4-(trifluoromethyl)phenyl]piperazin-1-yl}acetyl)piperazine], the Ki (in general, a dissociation constant, usually derived from enzyme kinetics or from competition with a known ligand) is under 1 µM.

The experiment is the same for the next values; noted with them: Table II "Ki", symbol "*": Ki in the assay of Example 7; read-out: Ki.
For the molecule `O=C(CN1CCN(c2cnc(-c3cc(C(F)(F)F)ccc3Cl)cn2)CC1)N1CCN(C2CCC2)CC1` [Compound 912, 2-[2-chloro-5-(trifluoromethyl)phenyl]-5-{4-[2-(4-cyclobutylpiperazin-1-yl)-2-oxoethyl]piperazin-1-yl}pyrazine], the Ki is under 1 µM.

As to `CCC(C)N1CCN(C(=O)CN2CCN(c3cccc(Cl)c3Cl)CC2)CC1` (stereo not drawn) [Compound 859, 1-sec-butyl-4-{[4-(2,3-dichlorophenyl)piperazin-1-yl]acetyl}piperazine], the Ki was under 1 µM. `CCC(C)N1CCN(C(=O)CN2CCN(c3cccc(OC)c3)CC2)CC1` (stereo not drawn) [Compound 875, 1-sec-butyl-4-{[4-(3-methoxyphenyl)piperazin-1-yl]acetyl}piperazine]: the Ki is under 1 µM.

Take `COc1cccc(N2CCN(CC(=O)N3CCN(C4CCCCC4)CC3)CC2)c1` [Compound 820, 1-cyclohexyl-4-{[4-(3-methoxyphenyl)piperazin-1-yl]acetyl}piperazine]: the Ki was under 1 µM. With `CCC(C)N1CCN(C(=O)CN2CCN(c3ccccc3Cl)CC2)CC1` (stereo not drawn) [Compound 866, 1-sec-butyl-4-{[4-(2-chlorophenyl)piperazin-1-yl]acetyl}piperazine], the Ki was under 1 µM. Take `O=C(CN1CCN(c2ncc(F)cn2)CC1)N1CCN(C2CCC2)CC1` [Compound 916, 2-{4-[2-(4-cyclobutylpiperazin-1-yl)-2-oxoethyl]piperazin-1-yl}-5-fluoropyrimidine]: the Ki is under 1 µM. Take `COc1ccc(F)cc1-c1ccc(N2CCN(CC(=O)N3CCN(C4CCC4)CC3)CC2)cc1` [Compound 792, 1-cyclobutyl-4-{[4-(5′-fluoro-2′-methoxybiphenyl-4-yl)piperazin-1-yl]acetyl}piperazine]: the Ki is under 1 µM.

Regarding `CCC(C)N1CCN(C(=O)CN2CCN(c3ccc(OC)c(OC)c3)CC2)CC1` (stereo not drawn) [Compound 870, 1-sec-butyl-4-{[4-(3,4-dimethoxyphenyl)piperazin-1-yl]acetyl}piperazine], the Ki is under 1 µM. As to `CCC(C)N1CCN(C(=O)CN2CCN(c3cc(Cl)cc(Cl)c3)CC2)CC1` (stereo not drawn) [Compound 872, 1-sec-butyl-4-{[4-(3,5-dichlorophenyl)piperazin-1-yl]acetyl}piperazine], the Ki is under 1 µM.

On to `CCC(C)N1CCN(C(=O)CN2CCN(c3ccc(C)cc3)CC2)CC1` (stereo not drawn) [Compound 882, 1-sec-butyl-4-{[4-(4-methylphenyl)piperazin-1-yl]acetyl}piperazine], for which the Ki was under 1 µM.

In the case of `CCC(C)N1CCN(C(=O)CN2CCN(c3ccc(F)cc3F)CC2)CC1` (stereo not drawn) [Compound 861, 1-sec-butyl-4-{[4-(2,4-difluorophenyl)piperazin-1-yl]acetyl}piperazine], the Ki was under 1 µM.

Staying with this experiment, now noted: Table II, "*" in Ki; assay of Example 7; read-out: Ki.
Consider `CC1CCCN1C(=O)c1cccc(N2CCN(CC(=O)N3CCN(C4CCC4)CC3)CC2)c1` (stereo not drawn) [Compound 640, 1-cyclobutyl-4-[(4-{3-[(2-methylpyrrolidin-1-yl)carbonyl]phenyl}piperazin-1-yl)acetyl]piperazine], for which the Ki was under 1 µM. For the molecule `CC1CCCCN1C(=O)c1ccc(N2CCN(CC(=O)N3CCN(C4CCC4)CC3)CC2)cc1` (stereo not drawn) [Compound 644, 1-cyclobutyl-4-[(4-{4-[(2-methylpiperidin-1-yl)carbonyl]phenyl}piperazin-1-yl)acetyl]piperazine], the Ki was under 1 µM.

For `O=C(CN1CCN(c2ccc(-c3cc(F)ccc3F)cc2)CC1)N1CCN(C2CCC2)CC1` [Compound 685, 1-cyclobutyl-4-{[4-(2′,5′-difluorobiphenyl-4-yl)piperazin-1-yl]acetyl}piperazine], the Ki is under 1 µM. Still for that read-out and setting: in the case of `O=C(CN1CCN(c2cccc(C(=O)N3CC=CCC3)c2)CC1)N1CCN(C2CCC2)CC1` [Compound 583] it was under 1 µM.

Staying with this experiment, now noted: Table II; assay of Example 7; "*" in Ki; read-out: Ki.
With `O=C(CN1CCN(c2ccc(-c3cccc(Cl)c3Cl)nn2)CC1)N1CCN(C2CCC2)CC1` [Compound 1054, 3-{4-[2-(4-cyclobutylpiperazin-1-yl)-2-oxoethyl]piperazin-1-yl}-6-(2,3-dichlorophenyl)pyridazine], the Ki is under 1 µM.

On to `O=C(CN1CCN(c2ccc(-c3cc(Cl)ccc3Cl)nn2)CC1)N1CCN(C2CCC2)CC1` [Compound 1060, 3-{4-[2-(4-cyclobutylpiperazin-1-yl)-2-oxoethyl]piperazin-1-yl}-6-(2,5-dichlorophenyl)pyridazine], for which the Ki was under 1 µM. `COc1ccc(-c2cnc(N3CCN(CC(=O)N4CCN(C5CCC5)CC4)CC3)cn2)cc1` [Compound 944, 2-{4-[2-(4-cyclobutylpiperazin-1-yl)-2-oxoethyl]piperazin-1-yl}-5-(4-methoxyphenyl)pyrazine]: the Ki is under 1 µM.

Regarding `COCCN(C(=O)c1ccc(N2CCN(CC(=O)N3CCN(C4CCC4)CC3)CC2)cc1)C(C)C` [Compound 1130, 4-{4-[2-(4-cyclobutylpiperazin-1-yl)-2-oxoethyl]piperazin-1-yl}-N-isopropyl-N-(2-methoxyethyl)benzamide], the Ki was under 1 µM. Same read-out and setting: then `O=C(CN1CCN(c2ccc(-c3ccc(F)cc3)nn2)CC1)N1CCN(C2CCC2)CC1` [Compound 1003, 3-{4-[2-(4-cyclobutylpiperazin-1-yl)-2-oxoethyl]piperazin-1-yl}-6-(4-fluorophenyl)pyridazine], with under 1 µM; and `CC(C)CCNC(=O)c1cccc(N2CCN(CC(=O)N3CCN(C4CCC4)CC3)CC2)c1` [Compound 1076, 3-{4-[2-(4-cyclobutylpiperazin-1-yl)-2-oxoethyl]piperazin-1-yl}-N-(3-methylbutyl)benzamide], with under 1 µM.

Turning to `COc1ccc(-c2ccc(-c3cnc(N4CCN(CC(=O)N5CCN(C6CCC6)CC5)CC4)cn3)cc2)cc1` [Compound 939, 2-{4-[2-(4-cyclobutylpiperazin-1-yl)-2-oxoethyl]piperazin-1-yl}-5-(4′-methoxybiphenyl-4-yl)pyrazine], the Ki was under 1 µM. With `O=C(CN1CCC2(CC1)CC(=O)N(Cc1ccccc1)C2=O)N1CCN(C2CCC2)CC1` [Compound 982, 2-benzyl-8-[2-(4-cyclobutylpiperazin-1-yl)-2-oxoethyl]-2,8-diazaspiro[4.5]decane-1,3-dione], the Ki is under 1 µM.

The same experiment, now with this note: assay of Example 7; "*" in Ki of Table II; read-out: Ki.
With `CCCCC(=O)NC1CCN(CC(=O)N2CCN(C3CCC3)CC2)C1` (stereo not drawn) [Compound 1257, N-{1-[2-(4-cyclobutylpiperazin-1-yl)-2-oxoethyl]pyrrolidin-3-yl}pentanamide], the inhibitory constant (Ki) is under 1 µM.

For the molecule `O=C(CN1CCN(c2ccc(-c3cncnc3)cc2)CC1)N1CCN(C2CCC2)CC1` [Compound 1154, 5-(4-{4-[2-(4-cyclobutylpiperazin-1-yl)-2-oxoethyl]piperazin-1-yl}phenyl)pyrimidine], the Ki was under 1 µM. Consider `CC(C)c1ccc(C(=O)NC2CCN(CC(=O)N3CCN(C4CCC4)CC3)C2)cc1` (stereo not drawn) [Compound 1235, N-{1-[2-(4-cyclobutylpiperazin-1-yl)-2-oxoethyl]pyrrolidin-3-yl)-4-isopropylbenzamide], for which the Ki is under 1 µM. The same measure, in the same setting: in the case of `Cc1cc(C)cc(C(=O)NC2CCN(CC(=O)N3CCN(C4CCC4)CC3)C2)c1` (stereo not drawn) [Compound 1229, N-{1-[2-(4-cyclobutylpiperazin-1-yl)-2-oxoethyl]pyrrolidin-3-yl}-3,5-dimethylbenzamide] it was under 1 µM; in that of `CSc1ccc(C(=O)NC2CCN(CC(=O)N3CCN(C4CCC4)CC3)CC2)cc1` [Compound 1222, N-{1-[2-(4-cyclobutylpiperazin-1-yl)-2-oxoethyl]piperidin-4-yl}-4-(methylthio)benzamide], under 1 µM. Turning to `O=C(NCC1CC1)c1ccc(N2CCN(CC(=O)N3CCN(C4CCC4)CC3)CC2)nc1` [Compound 1176, 6-{4-[2-(4-cyclobutylpiperazin-1-yl)-2-oxoethyl]piperazin-1-yl}-N-(cyclopropylmethyl) nicotinamide], the Ki was under 1 µM.

Consider `N#Cc1ccc(N2CCN(CC(=O)N3CCN(C4CCCC4)CC3)CC2)cc1` [Compound 1148, 4-{4-[2-(4-cyclopentylpiperazin-1-yl)-2-oxoethyl]piperazin-1-yl}benzonitrile], for which the Ki was under 1 µM. Consider `CCCc1ccc(C(=O)NC2CCN(CC(=O)N3CCN(C4CCC4)CC3)CC2)cc1` [Compound 1218, N-{1-[2-(4-cyclobutylpiperazin-1-yl)-2-oxoethyl]piperidin-4-yl}-4-propylbenzamide], for which the Ki was under 1 µM.

Staying with this experiment, now noted: assay of Example 7; symbol * in column headed Ki of Table II; read-out: Ki.
In the case of `COc1cc(N2CCN(CC(=O)N3CCN(C(C)C)CC3)CC2)ccc1Br` [Compound 336, 1-(4-bromo-3-methoxyphenyl)-4-[2-(4-isopropylpiperazin-1-yl)-2-oxoethyl]piperazine], the Ki was under 1 µM.

Turning to `O=C(Cc1cc(Cl)ccc1Br)N1CCN(CC(=O)N2CCN(C3CCC3)CC2)CC1` [Compound 379, 1-[(2-bromo-5-chlorophenyl)acetyl]-4-[2-(4-cyclobutylpiperazin-1-yl)-2-oxoethyl]piperazine], the Ki was under 1 µM. On to `CC(C)N1CCN(C(=O)CN2CCN(c3ccc(Br)cc3)CC2)CC1` [Compound 339, 1-(4-bromophenyl)-4-[2-(4-isopropylpiperazin-1-yl)-2-oxoethyl]piperazine], for which the Ki was under 1 µM.

As for `CC(=O)c1ccc(N2C(=O)C3(CCN(CC(=O)N4CCN(C5CCC5)CC4)CC3)c3ccccc32)cc1` [Compound 332, 1-(4-acetylphenyl)-1′-[2-(4-cyclobutylpiperazin-1-yl)-2-oxoethyl]spiro[indole-3,4′-piperidin]-2(1H)-one], the Ki was under 1 µM.
